Experiments:
NOMO1 [1] = test: AUC of viability dose-response curve (% viability x log10 dose units); higher = less sensitive; settings: 48 h
Procedure, shortened: (§1)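 Medium-adapted leukemia cells in 1536-well plates, at 500 or 1000 cells/well, were incubated for 48 h at 37°C with library compounds in DMSO at 11 threefold doses from 47 μM to 0.79 nM. CellTiter-Glo One luminescence normalised per plate to DMSO and cell-free wells was fitted with a four-parameter log-logistic model over log10 doses. Area under the curve was integrated from this fit by trapezoidal rule, with curves beyond full viability scaled and failed quality-control curves removed.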

SEM cells [2] = test: as above; settings: 48 h
Procedure, shortened: as §1

P12-Ichikawa = test: as above; settings: 48 h
Procedure, shortened: as §1

SEM cells [3] = test: cell viability relative to DMSO control; higher = less cytotoxic; settings: 48 h
Procedure, shortened: (§2)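 Viability was expressed as a per-plate percentage of DMSO wells, with cell-free wells as background. Leukemia cells (NOMO1 or SEM at 500 cells/well, P12-Ichikawa at 1000 cells/well) were adapted for at least four passages in each medium and seeded in 1536-well plates (5 μl). Library compounds in DMSO were pin-dosed over an 11-point threefold series from 47 μM to 0.79 nM, and CellTiter-Glo One luminescence was read after 48 h at 37°C.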

NOMO1 [4] = test: as above; settings: HPLM + 10% dialyzed FBS, 48 h
Procedure, shortened: as §2

C/C=C/C/C=C/CCC(=O)[C@H]1O[C@H]1C(N)=O
AUC of viability dose-response curve
Settings | NOMO1 [1] | P12-Ichikawa | SEM cells [2]
HPLM + 10% dialyzed FBS | 457 | 470 | 466
RPMI 5 mM glucose + 10% FBS | 458 | 473 | 464
RPMI 5 mM glucose + 10% dialyzed FBS | 476 | 469 | 464

cell viability [%], SEM cells [3]
Settings | HPLM + 10% dialyzed FBS | RPMI 5 mM glucose + 10% FBS
0.000781 µM | 105 | 106
0.00234 µM | 107 | 117
0.00702 µM | 118 | 132
0.0211 µM | 123 | 110
0.0632 µM | 117 | 121
0.19 µM | 126 | 120
0.569 µM | 109 | 132
1.71 µM | 124 | 111
5.12 µM | 113 | 128
15.4 µM | 112 | 118
46.1 µM | 71.5 | 55.3

O=C(c1ccc(OCCN2CCCCC2)cc1)c1c(-c2ccc(O)cc2)sc2cc(O)ccc12
Settings | AUC of viability dose-response curve | cell viability [%]
NOMO1 [1], HPLM + 10% dialyzed FBS | 466 | –
NOMO1 [1], RPMI 5 mM glucose + 10% FBS | 475 | –
NOMO1 [1], RPMI 5 mM glucose + 10% dialyzed FBS | 462 | –
NOMO1 [4], 0.000781 µM | – | 121
NOMO1 [4], 0.00234 µM | – | 119
NOMO1 [4], 0.00702 µM | – | 134
NOMO1 [4], 0.0211 µM | – | 135
NOMO1 [4], 0.0632 µM | – | 150
NOMO1 [4], 0.19 µM | – | 145
NOMO1 [4], 0.569 µM | – | 143
NOMO1 [4], 1.71 µM | – | 133
NOMO1 [4], 5.12 µM | – | 123
NOMO1 [4], 15.4 µM | – | 126
NOMO1 [4], 46.1 µM | – | 89.9
P12-Ichikawa, HPLM + 10% dialyzed FBS | 442 | –
P12-Ichikawa, RPMI 5 mM glucose + 10% FBS | 442 | –
P12-Ichikawa, RPMI 5 mM glucose + 10% dialyzed FBS | 413 | –
SEM cells [2], HPLM + 10% dialyzed FBS | 413 | –
SEM cells [2], RPMI 5 mM glucose + 10% FBS | 415 | –
SEM cells [2], RPMI 5 mM glucose + 10% dialyzed FBS | 384 | –

SEM cells [3], RPMI 5 mM glucose + 10% FBS
Settings | cell viability [%]
0.000781 µM | 108
0.00234 µM | 122
0.00702 µM | 122
0.0211 µM | 133
0.0632 µM | 113
0.19 µM | 42
0.569 µM | 133
1.71 µM | 94.1
5.12 µM | 85.3
15.4 µM | 117
46.1 µM | 68.9

Cc1cc(Nc2cc(NC(=O)c3c(Cl)cccc3Cl)ccn2)nc(N)n1
AUC of viability dose-response curve
Settings | NOMO1 [1] | P12-Ichikawa | SEM cells [2]
HPLM + 10% dialyzed FBS | 373 | 364 | 368
RPMI 5 mM glucose + 10% FBS | 391 | 364 | 391
RPMI 5 mM glucose + 10% dialyzed FBS | 359 | 346 | 341

SEM cells [3], HPLM + 10% dialyzed FBS
Settings | cell viability [%]
0.000781 µM | 112
0.00234 µM | 123
0.00702 µM | 126
0.0211 µM | 124
0.0632 µM | 128
0.19 µM | 128
0.569 µM | 113
1.71 µM | 61.3
5.12 µM | 40.9
15.4 µM | 37.9
46.1 µM | 40.2

From the supplement of paper PMC11451515
